From US20250170089A1, “ANTIMICROBIAL AMINO ESTERS” (THE HONG KONG POLYTECHNIC UNIVERSITY, priority 2023, published 2025)

Legend:
Candida albicans = experiment: MIC against fungi (Candida albicans); assay type: cell-based
[1] = test system: methicillin-resistant Staphylococcus aureus (MRSA); experiment: MIC against methicillin-resistant Staphylococcus aureus; assay type: cell-based
microbes = experiment: Rapid bactericidal test (shaking method, ASTM E2149 13a); assay type: cell-based; conditions: Ala12 diluted to 10 mg/mL with phosphate buffer, contact time 10 mins
Experimental: The Ala12 was diluted to 10 mg/mL with phosphate buffer. The shaking method (see the ASTM standard E2149 13a 2015) was used to detect their antibacterial activity, wherein the PBS group was used as a blank control. The contact time of bacteria treated with Ala12 is 10 mins.

[2] = Skin irritation according to ISO 10993-10:2010; conditions: concentration as high as 3.9 mg/mL
[3] = Skin sensitization according to ISO 10993-10:2010; conditions: concentration as high as 3.9 mg/mL
[4] = Dynamic light scattering (DLS) and zeta-potential of self-assembled nanoparticles; assay type: physicochemical
Source text: The dynamic light scattering (DLS) and zeta-potential indicate that […] assembles into nanoparticles with an average size of around 50-200 nm (FIG. 5) and the surface potential of the generated nanoparticle can be +2.15 mV, which means the nanoparticle is positive charged and the hydrophilic -NH2 groups are probably distributed on the outer surfaces.

CCCCCCCCCCCCOC(=O)C(C)N (stereo not shown) [Ala12]
MIC (Candida albicans): 390 μg/m
MIC [1]: 390 μg/m
time within which the amino ester kills microbes (microbes): ≤ 10 min
skin irritation [2]: completely free
skin sensitization [3]: completely free
surface potential of the generated nanoparticle (zeta-potential) [4]: +2.15 mV
average size of nanoparticles ([4]; DLS, FIG. 5): 50-200 nm
